Where a name gives a salt, the structure may show the parent alone.
Target: T1, human histamine H3 receptor (Homo sapiens, UniProt Q9Y5N1)
T1 construct: expressed in transfected cells; membranes prepared from cell pellets
Test: [3H]-N-methylhistamine binding
Conditions: membranes of histamine H3 receptor-expressing SK-N-MC cells; 0.8 nM [3H]-N-methylhistamine; 45 minutes at 25° C.; KI=(IC50)/(1+([L]/(KD)), KD 800 pM
Protocol: In the present invention receptor binding was determined using the human histamine H3 receptor (See Lovenberg et al Mol. Pharmacol. 1999, 1107). Screening using the human receptor is particularly important for the identification of new therapies for the treatment of human disease. Conventional binding assays for example are determined using rat synaptosomes (Garbarg et al J. Pharmacol. Exp. Ther. 1992, 263, 304), rat cortical membranes (West et al Mol. Pharmacol. 1990, 610), and guinea pig brain (Korte et al Biochem. Biophys. Res. Commun. 1990, 978). Only limited studies have been performed previously using human tissue but these allude to significant differences in the pharmacology of rodent and primate receptors (West et al Eur. J. Pharmacol. 1999, 233).
A 10 cm tissue culture dish with a confluent monolayer of SK-N-MC cells was split two days prior to transfection. Using sterile technique the media was removed and the cells were detached from the dish by the addition of trypsin. One fifth of the cells were then placed onto a new 10 cm dish. Cells were grown in a 37° C. incubator with 5% CO2 in Minimal Essential Media Eagle with 10% Fetal Bovine Serum. After two days cells were approximately 80% confluent. These were removed from the dish with trypsin and pelleted in a clinical centrifuge. The pellet was then re-suspended in 400 μL complete media and transferred to an electroporation cuvette with a 0.4 cm gap between the electrodes (Bio-Rad #165-2088). One microgram supercoiled H3 receptor cDNA was added to the cells and mixed. The voltage for the electroporation was set at 0.25 kV, the capacitance is set at 960 μF.
After electroporation the cells were diluted into 10 mL complete media and plated onto four 10 cm dishes. Due to the variability in the efficiency of electroporation, four different concentrations of cells were plated. The ratios used were: 1:20, 1:10, and 1:5, with the remainder of the cells being added to the fourth dish. The cells were allowed to recover for 24 hours before adding the selection media (complete media with 600 μg/ml G418). After 10 days dishes were analyzed for surviving colonies of cells. Dishes with well-isolated colonies were used. Cells from individual colonies were isolated and tested. SK-N-MC cells were used because they give efficient coupling for inhibition of adenylate cyclase. The clones that gave the most robust inhibition of adenylate cyclase in response to histamine were used for further study.
1(B) [^3H]-N-methylhistamine Binding
Cell pellets from histamine H3 receptor-expressing SK-N-MC cells were homogenized in 20 mM TrisHCl/0.5 mM EDTA. Supernatants from a 800 g spin were collected, recentrifuged at 30,000 g for 30 minutes. Pellets were rehomogenized in 50 mM Tris/5 mM EDTA (pH 7.4). Membranes were incubated with 0.8 nM [^3H]-N-methylhistamine plus/minus test compounds for 45 minutes at 25° C. and harvested by rapid filtration over GF/C glass fiber filters (pretreated with 0.3% polyethylenimine) followed by four washes with ice cold buffer. Filters were dried, added to 4 mL scintillation cocktail and then counted on a liquid scintillation counter. Non-specific binding was defined with 10 μM histamine according to Chen and Prusoff, Biochem. Pharmacol. 1973, 22:3099. KI values were calculated based on a KD of 800 pM and a ligand concentration ([L]) of 800 pM according to the formula: KI=(IC50)/(1+([L]/(KD)). KI values are provided in the examples above.

T1 sequence (Q9Y5N1 whole entry): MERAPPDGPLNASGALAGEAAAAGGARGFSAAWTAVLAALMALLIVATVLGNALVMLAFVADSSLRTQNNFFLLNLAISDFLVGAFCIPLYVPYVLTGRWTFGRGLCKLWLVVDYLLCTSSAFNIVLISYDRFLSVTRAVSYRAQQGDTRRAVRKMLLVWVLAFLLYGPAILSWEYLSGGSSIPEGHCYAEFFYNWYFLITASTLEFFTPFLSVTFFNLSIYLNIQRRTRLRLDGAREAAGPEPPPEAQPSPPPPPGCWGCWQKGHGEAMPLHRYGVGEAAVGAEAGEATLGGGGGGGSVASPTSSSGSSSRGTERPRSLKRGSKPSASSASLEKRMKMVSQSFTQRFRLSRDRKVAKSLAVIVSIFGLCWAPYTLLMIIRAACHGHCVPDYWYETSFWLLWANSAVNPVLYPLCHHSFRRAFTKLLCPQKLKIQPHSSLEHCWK

**Q.** For `CCCCN(CCCC)CCCOc1ccc(-c2cn3cccc(C)c3n2)cc1` [Example 2, 2-[4-[3-(Dibutylamino)propoxy]phenyl)-8-methylimidazo[1,2-a]pyridine], which Ki is on record?
**A.** 500 nM

**Q.** With `CCCCN(CCCC)CCCOc1ccc(C(=O)c2cn3ccc(C)cc3n2)cc1` [Example 3, [4-(3-dibutylamino-propoxy)-phenyl]-(7-methyl-imidazo[1,2-a]pyridin-2-yl)-methanone] as the molecule, how does the Ki read?
**A.** 70 nM

**Q.** Which Ki does the source give for `CCCCN(CCCC)CCCOc1ccc(-c2nc3c(C)cccn3c2C)cc1` [Example 4, 2-(4-Dibutylaminopropoxyphenyl)-3,8-dimethylimidazo[1,2-a]pyridine] here?
**A.** 327 nM

**Q.** With `CCCCN(CCCC)CCCOc1ccc(C(=O)c2cn3cccc(C)c3n2)cc1` [Example 5, 2-(4-Dibutylaminopropoxybenzoyl)-8-methylimidazo[1,2-a]pyridine] as the molecule, how does the Ki read?
**A.** 500 nM

**Q.** Which Ki does the source give for `CCCN(CCC)CCCOc1ccc(-c2cn3cccc(C)c3n2)cc1` [Example 7, 2-(4-Dipropylaminopropoxyphenyl)-8-methylimidazo[1,2-a]pyridine] here?
**A.** 44 nM

**Q.** For `Cc1cccn2cc(-c3ccc(OCCCN(C)C)cc3)nc12` [Example 8, 2-(4-Dimethylaminopropoxyphenyl)-8-methylimidazo[1,2-a]pyridine], which Ki is on record?
**A.** 14 nM

**Q.** For `CN(C)CCCOc1ccc(-c2cn3ccccc3n2)cc1` [Example 9, 2-(4-Dimethylaminopropoxyphenyl)imidazo[1,2-a]pyridine], which Ki is on record?
**A.** 119 nM

**Q.** Which Ki does the source give for `CCN(CC)CCOc1ccc(-c2cn3cccc(C)c3n2)cc1` [Example 10, 2-(4-Diethylaminoethoxyphenyl)-8-methylimidazo[1,2-a]pyridine] here?
**A.** 15 nM

**Q.** With `Cc1cccn2cc(-c3ccc(OCCN(C(C)C)C(C)C)cc3)nc12` [Example 11, 2-(4-Diisopropylaminoethoxyphenyl)-8-methylimidazo[1,2-a]pyridine] as the molecule, how does the Ki read?
**A.** 55 nM

**Q.** Which Ki does the source give for `CCCCCN(CCCCC)CCCOc1ccc(-c2cn3cccc(C)c3n2)cc1` [Example 13, 2-(4-Dipentylaminopropoxyphenyl)-8-methylimidazo[1,2-a]pyridine] here?
**A.** 500 nM

**Q.** With `CCCN(CCC)CCCOc1ccc(-c2cn3cccc(C)c3n2)cc1C` [Example 14, 2-(4-Dipropylaminopropoxy-(3-methyl)-phenyl)-8-methylimidazo[1,2-a]pyridine] as the molecule, how does the Ki read?
**A.** 14 nM

Tested on: not given
Test: not given
Conditions: not given

**Q.** Which melting point does the source give for `CCCCN(CCCC)CCCOc1ccc(-c2cn3ccccc3n2)cc1` (as salt: HCl) [Example 1, 2-(4-Dibutylaminopropoxyphenyl)imidazo[1,2-a]pyridine] here?
**A.** 179 to 183 °C

**Q.** For `CCCCN(CCCC)CCCOc1ccc(-c2cn3cccc(C)c3n2)cc1` (as salt: HCl) [Example 2, 2-[4-[3-(Dibutylamino)propoxy]phenyl)-8-methylimidazo[1,2-a]pyridine], which melting point is on record?
**A.** 214 to 217 °C

**Q.** For `CCCCN(CCCC)CCCOc1ccc(-c2nc3c(C)cccn3c2C)cc1` (as salt: HCl) [Example 4, 2-(4-Dibutylaminopropoxyphenyl)-3,8-dimethylimidazo[1,2-a]pyridine], which melting point is on record?
**A.** 202 to 204 °C

**Q.** Which melting point does the source give for `CCCCN(CCCC)CCCOc1ccc(C(=O)c2cn3cccc(C)c3n2)cc1` (as salt: HCl) [Example 5, 2-(4-Dibutylaminopropoxybenzoyl)-8-methylimidazo[1,2-a]pyridine] here?
**A.** 159 to 161 °C

Source: US6489337B1, “Method for treating histamine H3 receptor-mediated disorders with 2- or 3-aryl substituted imidazo[1,2-a] pyridines” (Ortho-McNeil Pharmaceutical, Inc., priority 2000, dated 2002)
